The values that follow come from patent US20240041042A1, “1-(PYRIDYL)-5-AZINYLPYRAZOLE DERIVATIVES, AND THEIR USE FOR CONTROL OF UNDESIRED PLANT GROWTH” (Bayer Aktiengesellschaft, priority 2020, published 2024).

Format in all cases: in vivo
The subject of series [1] is Viola tricolor (VIOTR). As to the kind of experiment: Pre-emergence herbicidal action against VIOTR. The following applies: 320 g/ha, Viola tricolor. In outline: (§1)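 Pre-emergence soil-surface spray, WP/EC formulation, 0.5% additive, 600 l/ha water, rates of 320 g/ha or lower. Greenhouse, ~3 wk. Visual score, % of untreated control (100% = plants dead, 0% = like control).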

Series [2] relates to Digitaria sanguinalis (DIGSA). As to the kind of experiment: Pre-emergence herbicidal action against DIGSA. The method, boiled down: as §1
In series [3] the test system is Verconica persica (VERPE). As to the kind of experiment: Pre-emergence herbicidal action against VERPE. The following applies: dosage 320 g/ha. In outline:
as §1

The test system of series [4] is Pharbitis purpurea (PHBPU). The series is described as follows: Post-emergence herbicidal action against PHBPU. The conditions noted are these: dosage 80 g/ha. In outline:
(§2)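 Greenhouse plants sprayed at the one-leaf stage, 2–3 weeks after sowing, with WP or EC formulations plus 0.5% additive at 600 l/ha water. Activity rated visually after about 3 weeks versus untreated controls (100% = dead, 0% = like control), at 320 g/ha or lower.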

The subject of series [5] is Oryza sativa (ORYSA). The following applies: pre-emergence, crop plant compatibility, in comparison to untreated controls. The method, boiled down:
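Crop injury rated visually in percent against untreated plants roughly 3 weeks after treatment (0% no effect, 100% plants dead). Compounds, as WP or EC with 0.5% additive in 600 l/ha water, were applied to the covering soil right after sowing; greenhouse growth. Suffixes a, b, c denote different dosages.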

The subject of series [6] is Alopecurus myosuroides (ALOMY). As to the kind of experiment: Post-emergence herbicidal action against ALOMY. The conditions noted are these: 80 g/ha, visual rating about 3 weeks after treatment vs untreated controls (100% = plants have died, 0% = like control plants). The method, boiled down:
as §2

For series [7], the system named is Oryza sativa (ORYSA). The following applies: crop plant compatibility. In outline: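 Greenhouse crops in sandy loam sprayed post-emergence at the one-leaf stage, 2–3 weeks after sowing, with WP or EC formulations in water plus 0.5% additive at 600 l/ha. Damage rated visually about 3 weeks later versus untreated controls (0% = like control, 100% = dead); suffixes a–c denote different doses.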

Series [8] concerns Amaranthus retroflexus (AMARE). The series is described as follows: Pre-emergence herbicidal action against AMARE. The following applies: visual scoring after about 3 weeks vs untreated controls. In outline:
as §1

Series [9] has as its system Verconica persica (VERPE). As to the kind of experiment: Post-emergence herbicidal action against VERPE. The following applies: dosage 80 g/ha. In outline:
as §2

For series [10], the system named is Alopecurus myosuroides (ALOMY). As to the kind of experiment: Pre-emergence herbicidal action against ALOMY. The following applies: 320 g/ha; scored visually after about 3 weeks; 100% = plants have died. In outline:
as §1

Series [11] deals with Abutilon theophrasti (ABUTH). As to the kind of experiment: Post-emergence herbicidal action against ABUTH. The conditions noted are these: 80 g/ha, visual rating about 3 weeks after treatment vs untreated controls (100% = plants have died, 0% = like control plants). In outline:
as §2

The test system of series [12] is Lolium rigidum (LOLRI). As to the kind of experiment: Pre-emergence herbicidal action against LOLRI. The following applies: dosage 320 g/ha. In outline:
as §1

Series [13] relates to Amaranthus retroflexus (AMARE). As to the kind of experiment: Post-emergence herbicidal action against AMARE. The following applies: 80 g/ha, visual rating about 3 weeks after treatment vs untreated controls (100% = plants have died, 0% = like control plants). The method, boiled down: as §2
Series [14] deals with Setaria viridis (SETVI). As to the kind of experiment: Pre-emergence herbicidal action against SETVI. The conditions noted are these: dosage 320 g/ha. The method, boiled down:
as §1

The subject of series [15] is Viola tricolor (VIOTR). The series is described as follows: Post-emergence herbicidal action against VIOTR. The conditions noted are these: 80 g/ha. In outline: as §2
For series [16], the system named is Echinochloa crus-galli (ECHCG). The series is described as follows: Pre-emergence herbicidal action against ECHCG. The conditions noted are these: dosage 320 g/ha. The method, boiled down: as §1
The test system of series [17] is Echinochloa crus-galli (ECHCG). As to the kind of experiment: Post-emergence herbicidal action against ECHCG. The conditions noted are these: dosage 80 g/ha. In outline:
as §2

Series [18] deals with Polygonum convolvulus (POLCO). As to the kind of experiment: Pre-emergence herbicidal action against POLCO. The following applies: dosage 320 g/ha. In outline:
as §1

Series [19] deals with Digitaria sanguinalis (DIGSA). The series is described as follows: Post-emergence herbicidal action against DIGSA. The following applies: 80 g/ha, visual rating about 3 weeks after treatment. In outline:
as §2

In series [20] the test system is Polygonum convolvulus (POLCO). The series is described as follows: Post-emergence herbicidal action against POLCO. The conditions noted are these: dosage 80 g/ha. The method, boiled down: as §2
For series [21], the system named is Avena fatua (AVEFA). As to the kind of experiment: Pre-emergence herbicidal action against AVEFA. The following applies: 320 g/ha, visual scoring after about 3 weeks vs untreated controls. The method, boiled down:
as §1

The subject of series [22] is Matricaria inodora (MATIN). As to the kind of experiment: Pre-emergence herbicidal action against MATIN. The following applies: dosage 320 g/ha. In outline:
as §1

The mark [23] stands for this setting: 80 g/ha, visual scoring after about 3 weeks vs untreated controls.
The mark [24] stands for this setting: 20 g/ha, effect vs untreated controls.
Where [25] appears, read: 80 g/ha, effect in comparison to untreated controls.

Where two headings read alike, the source gives them in different places.

`CCOC(=O)CN(C)S(=O)(=O)NC(=O)COc1nn(-c2ccccn2)c(-c2ccc(F)nc2)c1Br` [Example I-120]: the “Pre-emergence action against VIOTR in %” value in [1] amounted to 80%. In addition, the “Pre-emergence action against DIGSA in %” value in [2] (setting [23]) and in series [2] (dosage 320 g/ha) was 100% in each case. Further, the “Pre-emergence action against VERPE in %” value in series [3] turned out to be 90%. In series [4], the “Post-emergence action against PHBPU in %” value is 80%. Further, the figures for the “Pre-emergence action against ORYSA in %” value in [5] (80 g/ha) and in series [5] (320 g/ha) were 0% and 10%, respectively. Moreover, in [6], the “Post-emergence action against ALOMY in %” value amounted to 100%. The “Post-emergence action against ORYSA in %” value in series [7] (setting [24]) stood at 10%; in [7] (setting [25]), 20%. For the same molecule, the “Pre-emergence action against AMARE in %” value in series [8] (320 g/ha) is 90%. Further, the “Post-emergence action against VERPE in %” value in series [9] is 90%. Also, the “Pre-emergence action against ALOMY” value in [10] was 80%. Besides, the “Post-emergence action against ABUTH in %” value in series [11] was 80%. The “Pre-emergence action against LOLRI in %” value in series [12] came to 80%. Also, the “Post-emergence action against AMARE in %” value in series [13] was 80%. For the same molecule, the “Pre-emergence action against SETVI in %” value in [14] came out at 100%.

For `CCOC(=O)COc1nn(-c2ccccn2)c(-c2ccc(F)nc2)c1I` [Example I-121], the “Pre-emergence action against VIOTR in %” value in series [1] is reported as 100%. The “Pre-emergence action against DIGSA in %” value in [2] (setting [23]) and in series [2] (dosage 320 g/ha) was 100% throughout. For the same molecule, in series [15], the “Post-emergence action against VIOTR in %” value was 80%. Moreover, in series [3], the “Pre-emergence action against VERPE in %” value is 100%. In addition, the “Pre-emergence action against ORYSA in %” value in [5] (80 g/ha) is listed as 0%. Also, the “Pre-emergence action against ECHCG in %” value in [16] worked out at 100%. In [6], the “Post-emergence action against ALOMY in %” value is given as 80%. The “Post-emergence action against ORYSA in %” value in series [7] (setting [24]) and in series [7] (setting [25]) was 0% each time. Also, the “Post-emergence action against ECHCG in %” value in series [17] amounted to 80%. The “Pre-emergence action against POLCO in %” value in series [18] is 100%. Further, the “Pre-emergence action against AMARE in %” value in series [8] (80 g/ha) and in [8] (320 g/ha) was 100% in each case. The “Post-emergence action against VERPE in %” value in series [9] amounted to 80%. In [10], the “Pre-emergence action against ALOMY” value worked out at 100%. Further, the “Pre-emergence action against LOLRI in %” value in series [12] amounted to 100%. For the same molecule, the “Pre-emergence action against SETVI in %” value in [14] worked out at 100%. In series [19], the “Post-emergence action against DIGSA in %” value is recorded as 80%. Besides, the “Post-emergence action against POLCO in %” value in series [20] worked out at 80%. Besides, the “Pre-emergence action against AVEFA in %” value in series [21] is on record as 90%. The “Pre-emergence action against MATIN in %” value in [22] is 80%.
